# Measurements from patent US20240226178A1, “ELECTROPHYSIOLOGICAL MODIFICATION TO SUPPRESS ARRHYTHMIAS” (UNIVERSITY OF WASHINGTON, priority 2021, published 2024).
# What was measured:
# EA in pigs = details: after hPSC-CM transplantation, reference [17]; cited from earlier work
# RUES2 hESC-CMs wild-type = assay: MEA dose-response of compounds on spontaneous electrical activity of hESC-CMs; type: cell-based, human; details: for beating frequency / beat rate (effect in words) / spike amplitude (effect in words): RUES2 hESC-CMs wild-type on MEA, increasing doses vs DMSO control
# Description: FIGS. 6A-6F. […] Data shown as mean±SEM of 2 independent experiments each with 6 technical replicates (wells), and normalized on experimental baseline and expressed as % vs. DMSO control. Lines represents nonlinear regression of normalized response Y=100/(1+10^((LogIC50-X)*HillSlope))).
# FIGS. 13A-13C. […] (FIGS. 13A, 13B, 13C) Dose-response curve of Mibefradil (ICaT, FIG. 13A), Zacopride (IK1 agonist, FIG. 13B) and Verapamil (L-type calcium channel inhibitor, FIG. 13C) on MEA system. Data shown as mean±SEM of 2 independent experiments normalized on baseline and expressed as % vs DMSO control (N=2, n=6). Lines represent nonlinear regression of normalized response Y=100/(1+10^((LogIC50-X)*HillSlope))).
# The role of ion channels in automaticity has been so far largely studied in the context of the adult mouse sinoatrial node. Whether the same mechanisms also apply to hPSC-CMs and/or fetal human cardiomyocytes remains controversial. First, a variety of pharmacological compounds were tested on hPSC-CMs derived from the RUES2 human embryonic stem cells (hESCs), which were differentiated by sequential small molecule-based activation and inhibition of the WNT pathway. The inventors performed electrophysiological analyses using a multielectrode array (MEA) to record the effects of the different compounds on hPSC-CMs spontaneous electrical activity. […] Zacopride, reported to have agonistic effect on the Kir2.1 channel (encoded by KCNJ2) that mediates IKI currents, was also tested.
# CytoView™ MEA 48 were coated with 0.17 mg/mL of Matrigel for 1 hour at 37° C. […] For spontaneous beat recording, spontaneous electrical activity was recorded for 5 min using Maestro™ Pro system at 37° C. with 5% CO2. Considering the irregular beat rate of the cell lines bearing KCNJ2 KI, the data are shown as total number of beats recorded per experiment, divided by the total time of recording (average beats/min). For pharmacological studies, the different compounds were diluted in DMSO and incubated directly on MEA plates for 5 min at 37° C. Effects on spontaneous beat rate was determined by recording for 15 min after drug incubation. Non-linear regression curve calculated as Y=100/(1+10^((LogIC50-X)*HillSlope))). […] Quantification of beat rate, spike amplitude and beat period irregularity was performed using Axis Navigator (beat detector threshold: 30-100 μV; Minimum beat period: 200-500 ms; Maximum beat period: 30s).
Compound,beating frequency / beat rate (effect in words) (RUES2 hESC-CMs wild-type),spike amplitude (effect in words) (RUES2 hESC-CMs wild-type),further results
COc1cc2c(cc1OC)CC(=O)N(CCCN(C)C[C@H]1Cc3cc(OC)c(OC)cc31)CC2 [Ivabradine],potently reduced,did not alter,effect on EA in pigs (EA in pigs): reduces heart rate but does not prevent EA; spontaneous AP firing (RUES2 hESC-CMs wild-type; very high doses of ivabradine (100 μM)): did not prevent
COCC(=O)O[C@]1(CCN(C)CCCc2nc3ccccc3[nH]2)CCc2cc(F)ccc2[C@@H]1C(C)C [Mibefradil],–,–,"IC50 (RUES2 hESC-CMs wild-type; Homo sapiens, MEA dose-response, nonlinear regression of normalized response, log value, concentration unit inferred): 20 nM"
N=C(N)SCCc1ccc(OCc2ccc([N+](=O)[O-])cc2)cc1 [KB-R3702],dose-dependent reduction,dose-dependent reduction,–
CC(C)(C)CCN1C[C@@H]2C(CNC(=O)c3cc(Cl)cc(Cl)c3)[C@@H]2C1 (stereo partly shown) [ML-218],no effect on beating frequency until spike amplitudes were undetectable,–,"LogIC50 (RUES2 hESC-CMs wild-type; MEA dose-response, nonlinear regression of normalized response, log value, concentration unit not given): −4.8±0.1424; doses at which spike amplitude decreased (RUES2 hESC-CMs wild-type; MEA, hESC-CMs): above 1 μM"
COc1cc(N)c(Cl)cc1C(=O)NC1CN2CCC1CC2 (stereo not shown) [Zacopride],did not show measurable effects,did not show measurable effects,–
CCOc1ccc(Oc2ccc(OCc3cc(F)ccc3F)cc2)c(N)c1 [SEA0400],dose-dependent reduction,dose-dependent reduction,–
COc1ccc(CCN(C)CCCC(C#N)(c2ccc(OC)c(OC)c2)C(C)C)cc1OC (stereo not shown) [Verapamil],progressively decrease,progressively decrease,–
